Read-outs that look alike come from different tables or passages of the source.
Tests used:
[1] = molecular target: T1, human recombinant adrenergic α2B receptor (Homo sapiens, UniProt P18089); experiment: Adrenergic α2B radioligand binding ([3H]Rauwolscine); design: Inhibition of ligand binding, Adren. alpha2B: concentration or dose not given beside the values; details: percent inhibition of specific binding
T1 construct: expressed in transfected cells; host or cells: CHO-K1 cells
T1 sequence (P18089 1-450): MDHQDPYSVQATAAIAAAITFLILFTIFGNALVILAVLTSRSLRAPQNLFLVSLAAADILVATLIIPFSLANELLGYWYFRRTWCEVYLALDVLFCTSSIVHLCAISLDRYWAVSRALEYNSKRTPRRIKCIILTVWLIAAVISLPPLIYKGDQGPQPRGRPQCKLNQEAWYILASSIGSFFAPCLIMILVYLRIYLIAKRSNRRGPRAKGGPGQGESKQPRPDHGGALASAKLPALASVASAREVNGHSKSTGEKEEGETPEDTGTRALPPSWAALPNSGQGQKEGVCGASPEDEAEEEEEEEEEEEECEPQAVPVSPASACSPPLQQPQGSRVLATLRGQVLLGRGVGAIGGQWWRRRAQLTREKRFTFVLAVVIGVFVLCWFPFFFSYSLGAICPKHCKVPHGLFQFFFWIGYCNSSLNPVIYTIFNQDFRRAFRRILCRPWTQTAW
Summary of the method: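 Incubation ran 60 minutes at 25 °C in modified Tris-HCl buffer (50 mM, pH 7.4, 12.5 mM MgCl2, 1 mM EDTA, 0.2% BSA) using CHO-K1-expressed human receptor.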

[2] = molecular target: T2, human recombinant serotonin (5-Hydroxytryptamine) 5-HT2C receptor (Homo sapiens, UniProt P28335); experiment: Serotonin 5-HT2C radioligand binding ([3H]Mesulergine); design: Inhibition of ligand binding, Ser. 5-HT2C: concentration or dose not given beside the values; details: percent inhibition of specific binding
T2 construct: expressed in transfected cells; host or cells: CHO-K1 cells
T2 sequence (P28335 33-458): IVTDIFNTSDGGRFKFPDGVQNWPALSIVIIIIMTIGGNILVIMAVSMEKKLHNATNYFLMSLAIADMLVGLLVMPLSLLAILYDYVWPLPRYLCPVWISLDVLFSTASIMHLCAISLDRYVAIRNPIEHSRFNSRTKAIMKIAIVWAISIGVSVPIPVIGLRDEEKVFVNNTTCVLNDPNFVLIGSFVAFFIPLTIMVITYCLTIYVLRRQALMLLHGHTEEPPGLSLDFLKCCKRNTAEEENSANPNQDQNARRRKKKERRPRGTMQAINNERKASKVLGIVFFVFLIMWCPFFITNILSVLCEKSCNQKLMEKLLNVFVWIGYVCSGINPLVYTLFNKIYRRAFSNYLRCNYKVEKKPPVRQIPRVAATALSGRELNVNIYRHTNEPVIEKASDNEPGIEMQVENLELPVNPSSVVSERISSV
Method: Compounds of the invention were incubated with 1 nM [^3H]Mesulergine for 60 minutes at 25° C. Non-specific binding was estimated in the presence of 1 μM Mianserin. Receptor proteins were filtered and washed, the filters were then counted to determine [^3H]Mesulergine specifically bound. […] Biochemical assay results are presented as the percent inhibition of specific binding in Table 6.

[3] = molecular target: T3, human recombinant histamine H1 receptor (Homo sapiens, UniProt P35367); experiment: Histamine H1 radioligand binding ([3H]Pyrilamine)
T3 construct: expressed in transfected cells; host or cells: CHO cells
Summary of the method: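 CHO-expressed receptor in modified Tris-HCl buffer (50 mM, pH 7.4; 2 mM MgCl2, 100 mM NaCl, 250 mM sucrose); bound ligand measured after filtration and washing.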

[4] = molecular target: T4, human recombinant serotonin (5-Hydroxytryptamine) 5-HT6 receptor (Homo sapiens, UniProt P50406); experiment: Serotonin 5-HT6 radioligand binding ([3H]LSD); design: Inhibition of ligand binding, Ser. 5-HT6: concentration or dose not given beside the values; details: percent inhibition of specific binding
T4 construct: expressed in transfected cells; host or cells: human HeLa cells
Description: Receptor proteins were filtered and washed, the filters were then counted to determine [3H]LSD specifically bound. […] Biochemical assay results are presented as the percent inhibition of specific binding in Table 6.

[5] = percent inhibition of specific binding, screened at 1 μM, read-out: Inhibition of ligand binding, Hist. H1
[6] = read-out: Inhibition of ligand binding, Hist. H1

T3 sequence (P35367 whole entry): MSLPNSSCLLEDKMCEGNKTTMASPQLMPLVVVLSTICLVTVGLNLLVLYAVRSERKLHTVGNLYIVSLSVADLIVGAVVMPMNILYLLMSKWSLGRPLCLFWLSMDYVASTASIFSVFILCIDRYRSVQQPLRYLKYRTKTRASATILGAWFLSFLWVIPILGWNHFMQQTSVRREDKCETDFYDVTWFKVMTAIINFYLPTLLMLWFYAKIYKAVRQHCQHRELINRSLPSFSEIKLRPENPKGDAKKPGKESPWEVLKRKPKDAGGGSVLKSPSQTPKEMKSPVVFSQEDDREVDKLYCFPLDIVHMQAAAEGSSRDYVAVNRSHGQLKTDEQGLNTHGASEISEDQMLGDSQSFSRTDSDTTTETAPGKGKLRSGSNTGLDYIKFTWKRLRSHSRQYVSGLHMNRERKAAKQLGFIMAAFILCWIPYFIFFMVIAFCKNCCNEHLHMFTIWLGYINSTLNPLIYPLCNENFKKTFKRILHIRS
T4 sequence (P50406 whole entry): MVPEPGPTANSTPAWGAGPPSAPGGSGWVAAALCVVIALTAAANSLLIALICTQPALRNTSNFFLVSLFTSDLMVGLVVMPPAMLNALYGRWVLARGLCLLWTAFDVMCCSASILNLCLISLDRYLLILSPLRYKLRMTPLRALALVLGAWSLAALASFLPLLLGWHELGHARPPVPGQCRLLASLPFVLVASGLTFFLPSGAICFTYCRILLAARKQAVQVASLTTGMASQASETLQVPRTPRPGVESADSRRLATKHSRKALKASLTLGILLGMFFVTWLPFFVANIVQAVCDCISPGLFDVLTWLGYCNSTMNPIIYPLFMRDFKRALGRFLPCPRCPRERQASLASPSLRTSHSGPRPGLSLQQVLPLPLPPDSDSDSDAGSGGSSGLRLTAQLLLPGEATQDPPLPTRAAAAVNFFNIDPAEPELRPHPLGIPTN

Row | SMILES | Inhibition of ligand binding, Adren. alpha2B [1] | Inhibition of ligand binding, Ser. 5-HT2C [2] | inhibition at 1 µM [3, 5] | Inhibition of ligand binding, Ser. 5-HT6 [4] | inhibition at 1 µM [3, 6] | inhibition at 1 µM ([3]; read-out: Histamine Binding H1, percent inhibition of specific binding)
1 | CN1CCc2c(c3cc(Cl)ccc3n2CCN2CCCCC2)C1 [Compound 189] | 72% | 85% | 94% | 66% | – | –
2 | Cc1ccc2c(c1)c1c(n2CCc2ccc(C)nc2)CC(=O)N(C)C1 [Compound 195, 1,2-dihydro-2,8-dimethyl-5-(2-(6-methylpyridin-3-yl)ethyl)-4H-pyrido[4,3-b]indol-3(5H)-one] | 7% | −5% | 3% | 8% | – | –
3 | Cc1ccc2c(c1)c1c(n2CCc2ccccc2)CC(O)N(C)C1=O (centres unmarked) [Compound 215, 3,4-dihydro-3-hydroxy-2,8-dimethyl-5-phenethyl-2H-pyrido[4,3-b]indol-1(5H)-one] | −4% | 2% | – | 8% | -2% | –
4 | Cc1ccc2c(c1)c1c(n2CCc2ccc(C)nc2)CCN(C)C1=O [Compound 216] | 3% | −11% | – | −8% | 6% | 6%
5 | Cc1ccc2c(c1)c1c(n2CCN2CCCCC2)CCN(C)C1 [Compound 224, 2,3,4,5-tetrahydro-2,8-dimethyl-5-(2-(piperidin-1-yl)ethyl)-1H-pyrido[4,3-b]indole] | 46% | 74% | 56% | 43% | – | –
6 | Cc1ccc(CCn2c3c(c4cc(Cl)ccc42)CN(C)CC3)cn1 [Compound 225, 8-chloro-2,3,4,5-tetrahydro-2-methyl-5-(2-(6-methylpyridin-3-yl)ethyl)-1H-pyrido[4,3-b]indole] | 107% | 91% | – | 81% | 101% | –
7 | Cc1ccc2c(c1)c1c(n2CCc2ccccc2)CCN(C(=O)OCC(Cl)(Cl)Cl)C1 [Compound 227, 2,2,2-trichloroethyl 3,4-dihydro-8-methyl-5-phenethyl-1H-pyrido[4,3-b]indole-2(5H)-carboxylate] | 0% | 4% | -5% | 9% | – | –
8 | Cc1ccc2c(c1)c1c(n2CCc2ccccc2)CCNC1 [Compound 228, 2,3,4,5-tetrahydro-8-methyl-5-phenethyl-1H-pyrido[4,3-b]indole] | 101% | 82% | 81% | 89% | – | –
9 | CC(C)N1CCN(C(=O)Cn2c3c(c4cc(Cl)ccc42)CN(C)CC3)CC1 [Compound 248] | 75% | 59% | 85% | 67% | – | –
10 | CN1CCc2c(c3cc(F)ccc3n2CCc2ccc(Cl)cc2)C1 [Compound 249] | 109% | 98% | 100% | 101% | – | –
11 | Cc1ccc2c(c1)c1c(n2CC(=O)N2CCC(C)CC2)CCN(C)C1 [Compound 251] | 8% | 23% | 55% | 7% | – | –
12 | CN1CCc2c(c3cc(F)ccc3n2CCc2ccc(F)cc2)C1 [Compound 253] | 104% | 93% | 97% | 105% | – | –
13 | Cc1ccc(CCn2c3c(c4cc(C(=O)O)ccc42)CN(C)CC3)cn1 [Compound 256, 2-Methyl-5-(2-(6-methylpyridin-3-yl)ethyl)-2,3,4,5-tetrahydro-1H-pyrido[4,3-b]indole-8-carboxylic acid] | 4% | 0% | -1% | 2% | – | –
14 | Cc1ccc2c(c1)c1c(n2CC(=O)N2CCCC2)CCN(C)C1 [Compound 257, 2-(1,2,3,4-tetrahydro-2,8-dimethylpyrido[4,3-b]indol-5-yl)-1-(pyrrolidin-1-yl)ethanone] | 20% | 47% | 64% | 2% | – | –
15 | Cc1ccc2c(c1)c1c(n2CCc2ccc(C(=O)O)nc2)CCNC1 [Compound 262] | −2% | 6% | 81% | −4% | – | –
16 | Cc1ccc(CCn2c3c(c4cc(CO)ccc42)CN(C)CC3)cn1 [Compound 263] | 105% | 31% | 95% | 31% | – | –
17 | CN1CCc2c(c3cc(Cl)cc(F)c3n2CCc2ccc(C(F)(F)F)nc2)C1 [Compound 338, 8-chloro-6-fluoro-5-(2-(6-(trifluoromethyl)pyridin-3-yl)ethyl)-2,3,4,5-tetrahydro-2-methyl-1H-pyrido[4,3-b]indole] | 104% | 68% | 96% | 66% | – | –
18 | CN1CCc2c(c3cc(OC(F)(F)F)ccc3n2CCc2ccc(C(F)(F)F)nc2)C1 [Compound 341, 5-(2-(6-(trifluoromethyl)pyridin-3-yl)ethyl)-2,3,4,5-tetrahydro-2-methyl-8-(trifluoromethoxy)-1H-pyrido[4,3-b]indole] | −1% | 16% | 28% | 17% | – | –
19 | CC(C)c1ccc2c(c1)c1c(n2CCc2ccc(C(F)(F)F)nc2)CCN(C)C1 [Compound 342, 8-Isopropyl-2-methyl-5-[2-(6-trifluoromethyl-pyridin-3-yl)-ethyl]-2,3,4,5-tetrahydro-1H-pyrido[4,3-b]indole] | 108% | 73% | 80% | 72% | – | –
